Measured values as given in patent US20110245284A1, “Alkoxy- and Alkylthio-Substituted Anilinopyrimidines” (Bayer CropScience AG, priority 2008, published 2011).

Tests used:
[1] = logP by HPLC on reversed-phase columns (C 18), method [a], acidic range pH 2.3; type: physicochemical; conditions: for chromatographic logP: pH 2.3, logP (pH2.3)
Experimental: (§1) The logP values were determined in accordance with EEC Directive 79/831 Annex V.A8 by HPLC (High Performance Liquid Chromatography) on reversed-phase columns (C 18), using the methods below:
[a] The determination is carried out in the acidic range at pH 2.3 using the mobile phases 0.1% aqueous phosphoric acid and acetonitrile, linear gradient from 10% acetonitrile to 95% acetonitrile.

[2] = logP by LC-MS on reversed-phase columns (C 18), method [b], acidic range pH 2.7; type: physicochemical; conditions: pH 2.7, log p
Experimental: as §1
[b] The LC-MS determination in the acidic range is carried out at pH 2.7 using the mobile phases 0.1% aqueous formic acid and acetonitrile (contains 0.1% formic acid), linear gradient from 10% acetonitrile to 95% acetonitrile.

Leptosphaeria nodorum = Leptosphaeria nodorum test (wheat) / protective; type: in vivo; conditions: Parastagonospora nodorum, active compound concentration 500 ppm, evaluation 7-9 days after inoculation, read-out: efficacy
Experimental: Thereafter, the plants are placed in a greenhouse at 90% relative atmospheric humidity and a temperature of 22° C.

Sphaerotheca fuliginea = assay: Sphaerotheca test (cucumber) / protective; type: in vivo; conditions: Podosphaera fuliginea, 168 h, active compound concentration 500 ppm, evaluation 7 days after inoculation, read-out: efficacy
Experimental: The plants are subsequently placed in a greenhouse at 70% relative atmospheric humidity and a temperature of 23° C.

[3] = logP by LC-MS on reversed-phase columns (C 18), method [c], neutral range pH 7.8; type: physicochemical; conditions: pH 7.8
Experimental: as §1
[c] The LC-MS determination in the neutral range is carried out at pH 7.8 using the mobile phases 0.001 molar aqueous ammonium bicarbonate solution and acetonitrile, linear gradient from 10% acetonitrile to 95% acetonitrile.

Pyricularia oryzae = assay: whole plant or invertebrate; type: in vivo; conditions: 120 h, read-out: efficacy

Compound	chromatographic logP [1]	chromatographic logP [2]	pest or weed control at 500 ppm (Leptosphaeria nodorum) [%]	pest or weed control at 500 ppm (Sphaerotheca fuliginea) [%]	further results
COCC(O)c1cccc([N+](=O)[O-])c1 (centres unmarked) [2-methoxy-1-(3-nitrophenyl)ethanol, 2-Methoxy-1-(3-nitrophenyl)ethanol]	1.35				
COCc1cccc(Nc2ncc(Cl)c(NC(C)(C)C(C)=O)n2)c1 [Example 9]					log p ([1]; pH 2.3): 1.99[a]
CSC(C)c1cccc(Nc2ncc(C(F)(F)F)c(NC3CCC3)n2)c1 (centres unmarked) [Example 18]		4.34	≥ 70	≥ 70	
COCc1cccc(Nc2ncc(Cl)c(NCC(F)F)n2)c1 [Example 22]		1.99	≥ 70	≥ 70	
CCCSc1cccc(Nc2ncc(Cl)c(NCC(F)(F)F)n2)c1 [Example 30]		4.08		≥ 70	
CCSCc1cccc(Nc2ncc(Cl)c(NCC(F)(F)F)n2)c1 [Example 32]		3.49		≥ 70	
COCc1cccc(Nc2ncc(Cl)c(NCCCN3CCCCCC3=O)n2)c1 [Example 52]					log p ([1]; pH 2.3): 1.67[a]
COCCOc1cccc(Nc2ncc(Br)c(NC3CC3)n2)c1 [Example 67]		1.95	≥ 70	≥ 70	
CCN(C)c1nc(Nc2cccc(COC)c2)ncc1Cl [Example 85]		2.14	≥ 70	≥ 70	chromatographic logP [3]: 3.7
CCCSc1ccc(Nc2ncc(Cl)c(NC3CC3)n2)cc1 [Example 96]		3.09	≥ 70		pest or weed control at 250 ppm (Pyricularia oryzae): ≥ 80%
CCSC(CC)c1cccc(Nc2ncc(Cl)c(NC3CC3)n2)c1 (centres unmarked) [Example 115]		3.33	≥ 70	≥ 70	chromatographic logP [3]: 4.69
COCc1cccc(Nc2ncc(Cl)c(NCC(C)C)n2)c1 [Example 148]		2.08	≥ 70	≥ 70	
CCCNc1nc(Nc2cccc(COC)c2)ncc1Cl [Example 149]		1.72	≥ 70	≥ 70	
CCS(=O)(=O)C(C)c1cccc(Nc2ncc(Cl)c(NC(C)C)n2)c1 (centres unmarked) [Example 150]		1.65	≥ 70	≥ 70	chromatographic logP [3]: 2.89
CCC(C)[S+]([O-])C(C)c1cccc(Nc2ncc(C(F)(F)F)c(NC3CC3)n2)c1 (centres unmarked) [Example 160]		2.85	≥ 70	≥ 70	chromatographic logP [3]: 3.11
CCC(C)S(=O)(=O)C(C)c1cccc(Nc2ncc(C(F)(F)F)c(NC3CC3)n2)c1 (centres unmarked) [Example 187]		3.14	≥ 70	≥ 70	chromatographic logP [3]: 3.34
COCc1cccc(Nc2ncc(Cl)c(N(C)C3CC3C)n2)c1 (centres unmarked) [Example 199]		3.23	≥ 70	≥ 70	chromatographic logP [3]: 4.36
CCCC[S+]([O-])c1cccc(Nc2ncc(C(F)(F)F)c(NC3CCC3)n2)c1 (centres unmarked) [Example 203]		3.4	≥ 70	≥ 70	chromatographic logP [3]: 3.67
CCSCc1cccc(Nc2ncc(Br)c(NC3CC3)n2)c1 [Example 218]		2.79	≥ 70	≥ 70	
CCSCc1cccc(Nc2ncc(Cl)c(NC3CCC3)n2)c1 [Example 219]		3	≥ 70	≥ 70	chromatographic logP [3]: 4.44
COCC(=O)c1cccc(Nc2ncc(C(F)(F)F)c(NC3CC3)n2)c1 [Example 225]		2.54	≥ 70	≥ 70	

Compound	chromatographic logP [1]	chromatographic logP [2]	pest or weed control at 500 ppm (Leptosphaeria nodorum) [%]	pest or weed control at 500 ppm (Sphaerotheca fuliginea) [%]	further results
COC(C)c1cccc(Nc2ncc(Cl)c(NC3CC3C)n2)c1 (centres unmarked) [Example 228]		0.95	≥ 70	≥ 70	
Clc1ncc(Br)c(NC2CCC2)n1 [Example V-2, 5-Bromo-2-chloro-N-cyclobutylpyrimidin-4-amine]	2.86				
Clc1ncc(I)c(NC2CCC2)n1 [Example V-3, 2-Chloro-N-cyclobutyl-5-iodine-pyrimidin-4-amine]					logP (pH2.3) ([1]; pH 2.3, HPLC reversed-phase C 18): 3.08
Clc1ncc(Cl)c(NC2CC2)n1 [Example V-4, 2,5-Dichloro-N-cyclopropylpyrimidin-4-amine]	1.77				
FC(F)(F)c1cnc(Cl)nc1NC1CC1 [Example V-21, 2-Chloro-N-cyclopropyl-5-(trifluoromethyl)pyrimidin-4-amine]	2.38				
FC(F)(F)c1cnc(Cl)nc1NCC1CC1 [Example V-22, 2-Chloro-N-(cyclopropylmethyl)-5-(trifluoromethyl)pyrimidin-4-amine]	2.98				
CCC(SC)c1cccc(N)c1 (centres unmarked) [IVc-I-1, 3-[1-(Methylsulphanyl)propyl]aniline]	1.49				
CSC(C)c1cccc(N)c1 (centres unmarked) [IVc-I-2]					logP (pH2.3) ([1]; pH 2.3): 1.03
CCSC(CC)c1cccc(N)c1 (centres unmarked) [IVc-I-3, 3-[1-(Ethylsulphanyl)propyl]aniline]	1.94				
CCSC(C)c1cccc(N)c1 (centres unmarked) [IVc-I-4, 3-[1-(Ethylsulphanyl)ethyl]aniline]	1.46				
COCC(O)c1cccc(N)c1 (centres unmarked) [IVc-I-5, 1-(3-Aminophenyl)-2-methoxyethanol]	0.51				
COCCOC(c1cccc(N)c1)C(F)(F)F (centres unmarked) [IVc-I-6, 3-[2,2,2-Trifluoro-1-(2-methoxyethoxy)ethyl]aniline]	1.64				
COCC(O)c1cccc(N)c1 (centres unmarked) [IVc-I-7, 1-(3-Aminophenyl)-2-methoxyethanol]					logP (pH2.3) ([1]; pH 2.3): 0.73
CC(O)c1cccc(Nc2ncc(Br)c(NC3CC3)n2)c1 (centres unmarked) [Ic-IV-2, 1-(3 -{[5-Bromo-4-(cyclopropylamino)pyrimidin-2-yl]amino}phenyl)ethanol]	1.31				
CC(O)c1cccc(Nc2ncc(C(F)(F)F)c(NC3CC3)n2)c1 (centres unmarked) [Ic-IV-3, 1-(3 -{[4-(Cyclopropylamino)-5-(trifluoromethyl)pyrimidin-2-yl]amino}phenyl)ethanol]	2.01				
CCC(Cl)c1cccc([N+](=O)[O-])c1 (centres unmarked) [VIIa-1, 1-(1-Chloropropyl)-3-nitrobenzene]	3.31				
CCC(SC)c1cccc([N+](=O)[O-])c1 (centres unmarked) [VIc-I-1, 1-[1-(Methylsulphanyl)propyl]-3-nitrobenzene]	3.51				
CSC(C)c1cccc([N+](=O)[O-])c1 (centres unmarked) [VIc-I-2, 1-[1-(Methylsulphanyl)ethyl]-3-nitrobenzene]	3.06				
CCSC(CC)c1cccc([N+](=O)[O-])c1 (centres unmarked) [VIc-I-3, 1-[1-(Ethylsulphanyl)propyl]-3-nitrobenzene]	3.96				
CCSC(C)c1cccc([N+](=O)[O-])c1 (centres unmarked) [VIc-I-4, 1-[1-(Ethylsulphanyl)ethyl]-3-nitrobenzene]	3.48				
CCCSc1cccc(Nc2ncc(C(F)(F)F)c(Cl)n2)c1 [Xa-1, 4-Chloro-N-[3-(propylsulphanyl)phenyl]-5-(trifluoromethyl)pyrimidin-2-amine]	4.99				
